# Data taken from patent US9684253B2, “Triphenylamine derivative, electrophotographic photosensitive member, and image forming apparatus” (KYOCERA Document Solutions Inc., priority 2014, dated 2017).
# Assay: Evaluation of triphenylamine derivative solubility in tetrahydrofuran
# Type: physicochemical
# Settings: for Solubility: tetrahydrofuran, 25° C., {100/(100+W)}×100; for solubility in a solvent used for photosensitive layer formation (in words): as shown by Table 1
# Description: Solubility of each of the triphenylamine derivatives (HT-1) to (HT-8), (HT-A), and (HT-B) was evaluated. More specifically, solubility of the obtained triphenylamine derivative was evaluated by calculating percentage solubility according to the following method. In the method, a small amount of tetrahydrofuran was added to 100 mg of the triphenylamine derivative at 25° C. Next, the mixture was shaken and left to stand, and the above steps were repeated in order to find an additive amount W (mg) of tetrahydrofuran for which solubility of the triphenylamine derivative was saturated. The additive amount W was used to calculate the percentage solubility according to equation (1) shown below. […] Solubility (%)={100/(100+W)}×100 Equation (1): […]
SMILES,Solubility,solubility in a solvent used for photosensitive layer formation (in words)
CCc1cccc(C)c1N(c1ccc(/C=C/C=C/c2ccccc2)cc1)c1ccc(-c2ccc(N(c3ccc(/C=C/C=C/c4ccccc4)cc3)c3c(C)cccc3CC)cc2)cc1 [HT-1],12%,
CCc1cccc(C)c1N(c1ccc(/C=C/C=C/c2ccc(C)cc2)cc1)c1ccc(-c2ccc(N(c3ccc(/C=C/C=C/c4ccc(C)cc4)cc3)c3c(C)cccc3CC)cc2)cc1 [HT-2],12%,
Cc1ccccc1N(c1ccc(/C=C/C=C/c2ccccc2)cc1)c1ccc(-c2ccc(N(c3ccc(/C=C/C=C/c4ccccc4)cc3)c3ccccc3C)cc2)cc1 [HT-3],14%,
CCc1cccc(OC)c1N(c1ccc(/C=C/C=C/c2ccc(C)cc2)cc1)c1ccc(-c2ccc(N(c3ccc(/C=C/C=C/c4ccc(C)cc4)cc3)c3c(CC)cccc3OC)cc2)cc1 [HT-4],20%,
CCc1cccc(C)c1N(c1ccc(/C=C/C=C/c2cccc(OC)c2)cc1)c1ccc(-c2ccc(N(c3ccc(/C=C/C=C/c4cccc(OC)c4)cc3)c3c(CC)cccc3OC)cc2)cc1 [HT-5],18%,
Cc1ccc(N(c2ccc(/C=C/C=C/c3ccccc3)cc2)c2ccc(-c3ccc(N(c4ccc(/C=C/C=C/c5ccccc5)cc4)c4ccc(C)cc4C)cc3)cc2)c(C)c1 [HT-7],14%,
C(/C=C/c1ccc(N(c2ccc(-c3ccc(N(c4ccc(/C=C/C=C/c5ccccc5)cc4)c4ccccc4-c4ccccc4)cc3)cc2)c2ccccc2-c2ccccc2)cc1)=C\c1ccccc1 [HT-8],12%,
"C(/C=C/c1ccc(N(c2ccccc2)c2ccc(-c3ccc(N(c4ccccc4)c4ccc(/C=C/C=C/c5ccccc5)cc4)cc3)cc2)cc1)=C\c1ccccc1 [HT-A, reference compound]",≦1%,poor solubility
"Cc1cccc(N(c2ccc(/C=C/C=C/c3ccccc3)cc2)c2ccc(-c3ccc(N(c4ccc(/C=C/C=C/c5ccccc5)cc4)c4cccc(C)c4)cc3)cc2)c1 [HT-B, reference compound]",7%,poor solubility
